{"source": "patent US10513512B2", "about": "“Flavanone derivatives, and preparation method and use thereof” (Xuanwu Hospital of Capital Medical University, priority 2016, dated 2019)", "key": {"[1]": {"system": "MK-801-induced hyperlocomotion schizophrenia model in mice", "assay": "MK-801-induced hyperlocomotion schizophrenia model in mice (open-field test)", "assay_type": "in vivo, mouse", "details": "within 210 min; for Distance of central district activity / Total distance traveled: 50 mg/kg intragastric, Balb/c mice, MK-801 0.6 mg/kg i.p., Mean ± SE, n = 10; for distance of center square activity, effect in words / total distance of spontaneous activity, effect in words: intragastrical administration, MK-801 model mice", "source_text": "Objective: Glutamatergic hypofunction is one of the pathogenesis for mental disorders such as schizophrenia. N-methyl-D-aspartic acid (NMDA) receptor antagonists can induce schizophrenia-like effects. In this experiment, a hyperlocomotion schizophrenia model in mice induced by dizocilpine (MK-801), a NMDA receptor antagonist, was used to investigate the in vivo activity of the compounds P6, P5, P4 and P7 of the invention.\nMethods: SPF grade inbred Balb/c male mice with no special pathogens (purchased from Laboratory Animal Center of Capital Medical University), weighed (20±2) g, were randomly divided into a control group, a model group, and drug groups. The mice were adapted to the rearing environment for one week, and then were intragastrically administered for 3 days, wherein the control group and model group were intragastrically administered with physiological saline, and on Day 4, the mice were administered prior to test, and then were tested for 60 min in an Open-Field Activity Monitoring System. The control group was then intraperitoneally injected with physiological saline, the model group and the drug groups were intraperitoneally injected with a solution (0.6 mg/kg) of a NMDA receptor antagonist dizocilpine (MK-801), and the mice of these groups were further monitored for spontaneous activity and center square activity within 210 minutes, wherein spontaneous activity was used to reflect the positive symptom of rapid motion in schizophrenia, and center square activity was used to evaluate the anxiety status of schizophrenia."}, "[2]": {"system": "myelin basic protein (MBP) in the frontal cortex of Cuprizone model mice", "assay": "Demyelination in Cuprizone mouse model: MBP content by Western blot", "assay_type": "in vivo", "details": "25 and 50 mg/kg groups, FIG. 9", "source_text": "Objectiv: pathological changes in white matter and demyelination are the important pathogenesis for many central nervous system diseases and mental disorders. Cuprizone can cause demyelination and pathological changes in white matter. Myelin basic protein (MBP) is a marker protein for myelination of axons, and is the main component of myelin sheath. In this experiment, Western Blot method was used to study the effects of the compounds of the invention on the MBP content and demyelination in the brain of Cuprizone model mice. Methods: Cuprizone mouse model establishment and administration method were the same as those described in Experimental example 4. After ethological tests were performed, the mice were anaesthetized by intraperitoneal injection of 10% chloral hydrate. The brains were harvested and stored at −80° C. Western blot assay: brain tissue was lysed with lysate to extract protein, and the protein concentration was determined. SDS-PAGE gel electrophoresis was performed, the protein was transferred onto a membrane, and the membrane was blocked. The protein was incubated with an anti-MBP antibody (a primary antibody) overnight at 4° C. in a refrigerator. […] Signal intensity for each protein band was analyzed using FluorChem 8900 gray-scale analysis software."}, "[3]": {"target": "dopamine D2 receptor (DRD2) (Homo sapiens (Human), UniProt P14416)", "sequence (P14416 whole entry)": "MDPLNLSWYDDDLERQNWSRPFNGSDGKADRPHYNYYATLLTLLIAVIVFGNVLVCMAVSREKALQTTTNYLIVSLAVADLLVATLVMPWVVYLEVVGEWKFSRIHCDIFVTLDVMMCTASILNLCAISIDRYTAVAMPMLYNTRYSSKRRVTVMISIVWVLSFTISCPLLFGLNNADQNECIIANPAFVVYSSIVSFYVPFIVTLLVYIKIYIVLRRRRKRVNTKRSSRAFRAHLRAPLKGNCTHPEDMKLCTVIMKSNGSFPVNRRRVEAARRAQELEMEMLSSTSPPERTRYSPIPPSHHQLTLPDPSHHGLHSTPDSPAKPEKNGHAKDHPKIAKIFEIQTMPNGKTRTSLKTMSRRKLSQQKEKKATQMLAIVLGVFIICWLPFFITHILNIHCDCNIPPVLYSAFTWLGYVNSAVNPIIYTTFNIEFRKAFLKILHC", "assay": "Dopamine D2 receptor antagonism, Fluo-4 calcium fluorescence in HEK293 cells stably expressing DRD2/Gα16", "assay_type": "cell-based", "details": "50 nM Dopamine as agonist, read-out: IC50 for inhibiting dopamine D2 receptor", "source_text": "Objective: positive symptoms (hallucination, delusion, etc.) in patients with schizophrenia may be associated with dopamine (DA) hyperfunction in subcortical limbic system, and antipsychotic drugs, which block Dopamine D2 Receptor (DRD2), can effectively control positive symptoms of schizophrenia. By establishing a cell line co-transfected with DRD2 and Gα16, the activated DRD2 can activate Gα16 protein, thereby activating phospholipase C (PLC) to produce inositol 1,4,5-triphosphate (IP3) and diacylglycerol (DAG), wherein IP3 can bind to the IP3 receptor on endoplasmic reticulum and mitochondria, resulting in intracellular calcium release. Therefore, the determination of a change in intracellular calcium can be used as a method for detecting the activated state of DRD2.\nFluo-4/AM was a calcium fluorescent probe indicator for determining calcium ions. In this experiment, a Fluo-4 fluorescence method was used to determine the level of activated Gα protein by measuring the fluorescence intensity excited by intracellular calcium ions. If a compound could activate DRD2, the calcium influx was enhanced; on the contrary, if a compound could antagonize DRD2, the calcium influx was reduced.\nMethods: HEK293 cells stably expressing DRD2/Gα16 (a human embryonic kidney cell line, derived from Shanghai Institute of Materia Medica, Chinese Academy of Sciences) were seeded in a 96-well plate (the culture solution was 90% DMEM+10% fetal bovine serum), and incubated overnight. The culture solution was pipetted off, and a freshly prepared dye Fluo-4/AM was added. The cells were incubated in a 37° C. incubator for 40 min. The dye was completely pipetted off. After the cells were washed with a freshly prepared calcium buffer, a calcium buffer (50 μl) dissolved with a test drug was added. FlexStation II instrument was used in the determination. A calcium buffer (25 μl) dissolved with a known agonist was added automatically by the instrument at the fifteenth second, and the fluorescence value at 525 nm (an excitation wavelength of 485 nm) was finally read. […] IC50 value was calculated by GraphPad Prism."}, "[4]": {"system": "Cuprizone model mice", "assay": "Ethological change in Cuprizone model mice (Y-maze and open-field behavior test)", "assay_type": "in vivo, mouse", "details": "intragastrical administration; for number of arm entries in Y-maze, effect in words / spontaneous alternation in Y-maze, effect in words: within 8 min; for number of arm entries in Y-maze, effect in words: FIG. 6; for spontaneous alternation in Y-maze, effect in words: FIG. 7; for total distance of spontaneous activity in open-field test, effect in words: within 10 min, FIG. 8", "source_text": "Objective: neuroinflammation, pathological changes in white matter, and demyelination are the important pathogenesis for many central nervous system diseases. Cuprizone (dicyclohexanoneoxaly dihydrazone) can cause changes such as inflammation, demyelination, axonal injury, and cognitive function impairment. In this experiment, Y-maze and open-field behavior test were used to study the effects of the compounds of the invention on memory function and motion in a Cuprizone mouse model.\nMethods: SPF grade inbred C57BL/6 male mice, weighed (20±2) g, were randomly divided into a control group, a model group, and drug groups. The mice were adapted to the rearing environment for 3 days. Then, the control group was fed with a normal feed, and the other groups were fed with a feed containing 0.2% Cuprizone for model establishment. During model establishment, the mice in each group were intragastrically administered with a corresponding dose of drug, and were reared for 5 weeks. The mice were then subjected to the Y-maze and open field behavior test, wherein the number of arm entries in Y-maze was used to reflect the motion of mice; the spontaneous alternation in Y maze was used to reflect the working memory of mice; and the spontaneous activity in open-field behavior test was used to reflect the motion of mice."}, "[5]": {"system": "Iba-1-labeled microglial cells in the brain of Cuprizone model mice", "assay": "Microglial cell activation in Cuprizone mouse model: Iba-1 immunohistochemical staining", "assay_type": "in vivo", "details": "25, 50 mg/kg, FIG. 10", "source_text": "Objective: microglial activation and neuroinflammation are the important pathogenesis for many central nervous system diseases. Iba-1 could specifically label microglial cells. In this experiment, immunohistochemical method was used to study the effects of the compounds of the invention on Iba-1-labeled microglial cells in the brain of Cuprizone model mice.\nMethods: Cuprizone mouse model establishment and administration method were the same as those described in Experimental example 4. After ethological tests were performed, the mice were anaesthetized by intraperitoneal injection of 10% chloral hydrate. After perfusion, brain tissue was taken and fixed with […] paraformaldehyde, and then frozen and sliced. Immunohistochemical staining: the frozen sections were inactivated with 3% H2O2 for 10 min and rinsed with PBS; the tissues were blocked with 10% serum and incubated at 37° C. for 1 h. Serum was washed off and a primary antibody (an anti-Iba-1 antibody) was added dropwise. The resultant mixture was kept at 4° C. overnight. After rinsing with PBST, a biotin-conjugated goat anti-rabbit IgG antibody (a secondary antibody) was added dropwise, and incubated at 37° C. for 2 hrs. After rinsing with PBST, a horseradish peroxidase-conjugated streptavidin (a third antibody) was added dropwise, and incubated at 37° C. for 2 hrs. […] Iba-1 positive cells were observed under microscope, and counted."}}}
{"smiles": "O=C1CC(c2ccc(F)cc2)Oc2cc(OCCCCN3CCC(c4noc5cc(F)ccc45)CC3)cc(O)c21", "note": "(stereo not drawn) [Compound P4, 5-hydroxy-2-(4-fluorophenyl)-7-(4-(4-(6-fluoro-benzo[d]isoxazol-3-yl)-piperidin-1-yI)-butoxy)-chroman-4-one]", "values": [{"measurement": "Distance of central district activity", "setting": "[1]", "value": "11098 ± 1422", "unit": "cm"}, {"measurement": "Total distance traveled", "setting": "[1]", "value": "39222 ± 4300", "unit": "cm"}, {"measurement": "MBP content in frontal cortex, effect in words", "setting": "[2]", "value": "could significantly enhance the MBP content"}, {"measurement": "IC50", "setting": "[3]", "value": 87.7, "unit": "nM"}]}
{"smiles": "COc1ccc(C2CC(=O)c3c(O)cc(OCCCCN4CCN(c5ccccc5OC)CC4)cc3O2)cc1", "note": "(stereo not drawn) [Compound P1, 5-hydroxy-2-(4-methoxyphenyl)-7-(4-(4-(2-methoxyphenyl)-piperazin-1-yl)-butoxy)-chroman-4-one]", "values": [{"measurement": "IC50", "setting": "[3]", "value": 205, "unit": "nM"}]}
{"smiles": "COc1ccc(C2CC(=O)c3c(O)cc(OCCCN4CCN(c5ccccc5OC)CC4)cc3O2)cc1", "note": "(stereo not drawn) [Compound P6, 5-hydroxy-2-(4-methoxyphenyl)-7-(4-(4-(2-methoxyphenyl)-piperazin-1-yl)-propoxy)-chroman-4-one]", "values": [{"measurement": "number of arm entries in Y-maze, effect in words", "setting": "[4]", "value": "could reduce the number of arm entries"}, {"measurement": "spontaneous alternation in Y-maze, effect in words", "setting": "[4]", "value": "enhance the spontaneous alternation"}, {"measurement": "total distance of spontaneous activity in open-field test, effect in words", "setting": "[4]", "value": "could shorten the total distance of spontaneous activity"}, {"measurement": "number of Iba-1-labeled microglial cells in the brain, effect in words", "setting": "[5]", "value": "could significantly reduce the number of microglial cells"}, {"measurement": "Distance of central district activity", "setting": "[1]", "value": "10181 ± 2110", "unit": "cm"}, {"measurement": "Total distance traveled", "setting": "[1]", "value": "46922 ± 2233", "unit": "cm"}, {"measurement": "distance of center square activity, effect in words", "setting": "[1]", "value": "could shorten the total distance of spontaneous activity and the distance of center square activity"}, {"measurement": "total distance of spontaneous activity, effect in words", "setting": "[1]", "value": "could shorten the total distance of spontaneous activity"}, {"measurement": "IC50", "setting": "[3]", "value": 220, "unit": "nM"}]}
{"smiles": "COc1ccc(C2CC(=O)c3c(O)cc(OCCCN4CCC(c5noc6cc(F)ccc56)CC4)cc3O2)cc1", "note": "(stereo not drawn) [Compound P7, 5-hydroxy-2-(4-methoxyphenyl)-7-(4-(4-(6-fluoro-benzo[d]isoxazol-3-yl)-piperidin-1-yl)-propoxy)-chroman-4-one]", "values": [{"measurement": "Distance of central district activity", "setting": "[1]", "value": "7913 ± 1666", "unit": "cm"}, {"measurement": "Total distance traveled", "setting": "[1]", "value": "37051 ± 4308", "unit": "cm"}, {"measurement": "distance of center square activity, effect in words", "setting": "[1]", "value": "could shorten the total distance of spontaneous activity and the distance of center square activity"}, {"measurement": "total distance of spontaneous activity, effect in words", "setting": "[1]", "value": "could shorten the total distance of spontaneous activity"}, {"measurement": "IC50", "setting": "[3]", "value": 116, "unit": "nM"}]}
{"smiles": "COc1ccccc1N1CCN(CCCCOc2cc(O)c3c(c2)OC(c2ccc(C)cc2)CC3=O)CC1", "note": "(stereo not drawn) [Compound P2, 5-hydroxy-2-(4-methylphenyl)-7-(4-(4-(2-methoxyphenyl)-piperazin-1-yl)-butoxy)-chroman-4-one]", "values": [{"measurement": "IC50", "setting": "[3]", "value": 346, "unit": "nM"}]}
{"smiles": "COc1ccc(C2CC(=O)c3c(O)cc(OCCCCN4CCC(c5noc6cc(F)ccc56)CC4)cc3O2)cc1", "note": "(stereo not drawn) [Compound P5, 5-hydroxy-2-(4-methoxyphenyl)-7-(4-(4-(6-fluoro-benzo[d]isoxazol-3-yl)-piperidin-1-yl)-butoxy)-chroman-4-one]", "values": [{"measurement": "number of arm entries in Y-maze, effect in words", "setting": "[4]", "value": "could reduce the number of arm entries"}, {"measurement": "spontaneous alternation in Y-maze, effect in words", "setting": "[4]", "value": "enhance the spontaneous alternation"}, {"measurement": "total distance of spontaneous activity in open-field test, effect in words", "setting": "[4]", "value": "could shorten the total distance of spontaneous activity"}, {"measurement": "Distance of central district activity", "setting": "[1]", "value": "9211 ± 1845", "unit": "cm"}, {"measurement": "Total distance traveled", "setting": "[1]", "value": "30914 ± 3351", "unit": "cm"}, {"measurement": "distance of center square activity, effect in words", "setting": "[1]", "value": "could shorten the total distance of spontaneous activity and the distance of center square activity"}, {"measurement": "total distance of spontaneous activity, effect in words", "setting": "[1]", "value": "could shorten the total distance of spontaneous activity"}, {"measurement": "MBP content in frontal cortex, effect in words", "setting": "[2]", "value": "could significantly enhance the MBP content"}, {"measurement": "IC50", "setting": "[3]", "value": 51.3, "unit": "nM"}]}
{"smiles": "COc1ccccc1N1CCN(CCCCOc2cc(O)c3c(c2)OC(c2ccc(F)cc2)CC3=O)CC1", "note": "(stereo not drawn) [Compound P3, 5-hydroxy-2-(4-fluorophenyl)-7-(4-(4-(2-methoxyphenyl)-piperazin-1-yl)-butoxy)-chroman-4-one]", "values": [{"measurement": "IC50", "setting": "[3]", "value": 57.3, "unit": "nM"}]}
